Data: US10479795B2 (Incyte Corporation, priority 2016, dated 2019)
Where a name gives a salt, the structure may show the parent alone. Read-outs that look alike come from different tables or passages of the source.

Experiments:
[1] = biological target: PI3Kδ (p110δ/p85α) Recombinant Human Protein (Homo sapiens (Human), UniProt O00329); experiment: PI3Kδ Scintillation Proximity Assay; assay type: biochemical
In short: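 Radiometric read-out: 33P-labelled PIP3 product captured on WGA SPA beads and counted, with IC50 fitted from percent activity relative to DMSO control. Enzyme (3.4 nM) was incubated 120 min at room temperature with 20 μM PIP2 and 2 μM ATP at pH 6.7, 2% DMSO.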

[2] = test system: Phosphorylated Ribosomal Protein S6 (RPS6); experiment: THP-1 RPS6 ELISA Assay; assay type: cell-based, Human; details: THP-1 cells, read-out: PI3Kγ_THP1_RPS6_ELISA IC50
Experimental: To measure the Phosphorylated Ribosomal Protein S6 (RPS6) in cell lysates, THP-1 cells (Human Acute Monocytic Leukemia) are purchased from ATCC (Manassas, Va.) and maintained in RPMI with 10% FBS (Gibco/Life Technologies, Carlsbad, Calif.). For the assay, THP-1 cells are serum starved overnight in RPMI, then plated in RPMI (2×10^5 cells/well in 90 μL) into 96-well flat-bottom tissue culture treated plates (Corning, Corning, N.Y.), in the presence or absence of a concentration range of test compounds. Covered plates are incubated for 2 hours at 37° C., 5% CO2 then treated with or without 10 nM MCP-1 (MYBioSource, San Diego, Calif.) for 15 minutes at 37° C., 5% CO2. Plates are centrifuged at 1600 RPM and supernatants are removed. Cells are lysed in Lysis Buffer (Cell Signaling, Danvers, Mass.) with Protease Inhibitor (Calbiochem/EMD, Germany), PMSF (Sigma, St Louis Mo.), HALTS (Thermo Fisher, Rockford, Ill.) for 30 min on wet ice. Cell lysates are frozen at −80° C. before testing. The lysates are tested in the Human/Mouse/Rat Phospho-RPS6 ELISA (R&D Systems, Inc. Minn, Minn.). The plate is measured using a microplate reader (SpectraMax M5 —Molecular Devices, LLC Sunnyvale, Calif.) set to 450 nm with a wavelength correction of 540. IC50 determination is performed by fitting the curve of inhibitor percent inhibition versus the log of the inhibitor concentration using the GraphPad Prism 5.0 software.

[3] = biological target: PI3Kγ (p110γ) Recombinant Human Protein (Homo sapiens (Human), UniProt P48736); experiment: PI3K-γ Scintillation Proximity Assay; assay type: biochemical; details: read-out: PI3Kγ IC50
In short: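 Radiometric SPA readout: […] bound to WGA beads after overnight shaking, IC50 derived from % activity of DMSO control. Reaction used human p110γ, 2 μM ATP, 20 μM PIP2, pH 6.7 MOPS buffer with MgCl2, DTT, CHAPS, 2% DMSO, room temperature.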

Sequence of PI3Kγ (p110γ) Recombinant Human Protein (P48736 whole entry): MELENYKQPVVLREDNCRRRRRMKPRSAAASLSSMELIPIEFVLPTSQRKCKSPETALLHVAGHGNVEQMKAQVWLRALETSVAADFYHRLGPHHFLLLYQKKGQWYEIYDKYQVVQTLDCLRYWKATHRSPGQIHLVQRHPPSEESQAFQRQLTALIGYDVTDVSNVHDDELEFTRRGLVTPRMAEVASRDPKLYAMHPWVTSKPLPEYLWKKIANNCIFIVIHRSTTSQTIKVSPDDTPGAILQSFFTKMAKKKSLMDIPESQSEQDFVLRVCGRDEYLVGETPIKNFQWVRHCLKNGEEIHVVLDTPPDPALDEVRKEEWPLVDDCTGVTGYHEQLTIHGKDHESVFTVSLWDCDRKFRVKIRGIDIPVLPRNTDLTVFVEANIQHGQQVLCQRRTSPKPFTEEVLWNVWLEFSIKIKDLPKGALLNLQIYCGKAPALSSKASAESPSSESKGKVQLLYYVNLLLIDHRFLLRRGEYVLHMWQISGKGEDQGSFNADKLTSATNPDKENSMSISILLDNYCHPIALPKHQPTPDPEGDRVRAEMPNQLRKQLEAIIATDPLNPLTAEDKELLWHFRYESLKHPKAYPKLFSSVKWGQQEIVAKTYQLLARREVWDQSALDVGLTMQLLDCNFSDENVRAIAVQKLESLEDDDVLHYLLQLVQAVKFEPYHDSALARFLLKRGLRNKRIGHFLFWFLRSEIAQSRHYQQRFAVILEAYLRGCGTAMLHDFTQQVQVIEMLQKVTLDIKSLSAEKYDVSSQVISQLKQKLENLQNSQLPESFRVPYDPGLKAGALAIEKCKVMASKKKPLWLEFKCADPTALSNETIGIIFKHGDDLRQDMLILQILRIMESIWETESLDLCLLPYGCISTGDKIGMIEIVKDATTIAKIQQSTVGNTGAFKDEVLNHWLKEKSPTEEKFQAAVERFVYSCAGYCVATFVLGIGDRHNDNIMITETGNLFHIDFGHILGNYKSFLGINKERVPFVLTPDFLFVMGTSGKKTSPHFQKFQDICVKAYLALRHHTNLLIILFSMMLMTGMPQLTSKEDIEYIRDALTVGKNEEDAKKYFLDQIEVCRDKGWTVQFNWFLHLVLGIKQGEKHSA
Sequence of PI3Kδ (p110δ/p85α) Recombinant Human Protein (O00329 whole entry): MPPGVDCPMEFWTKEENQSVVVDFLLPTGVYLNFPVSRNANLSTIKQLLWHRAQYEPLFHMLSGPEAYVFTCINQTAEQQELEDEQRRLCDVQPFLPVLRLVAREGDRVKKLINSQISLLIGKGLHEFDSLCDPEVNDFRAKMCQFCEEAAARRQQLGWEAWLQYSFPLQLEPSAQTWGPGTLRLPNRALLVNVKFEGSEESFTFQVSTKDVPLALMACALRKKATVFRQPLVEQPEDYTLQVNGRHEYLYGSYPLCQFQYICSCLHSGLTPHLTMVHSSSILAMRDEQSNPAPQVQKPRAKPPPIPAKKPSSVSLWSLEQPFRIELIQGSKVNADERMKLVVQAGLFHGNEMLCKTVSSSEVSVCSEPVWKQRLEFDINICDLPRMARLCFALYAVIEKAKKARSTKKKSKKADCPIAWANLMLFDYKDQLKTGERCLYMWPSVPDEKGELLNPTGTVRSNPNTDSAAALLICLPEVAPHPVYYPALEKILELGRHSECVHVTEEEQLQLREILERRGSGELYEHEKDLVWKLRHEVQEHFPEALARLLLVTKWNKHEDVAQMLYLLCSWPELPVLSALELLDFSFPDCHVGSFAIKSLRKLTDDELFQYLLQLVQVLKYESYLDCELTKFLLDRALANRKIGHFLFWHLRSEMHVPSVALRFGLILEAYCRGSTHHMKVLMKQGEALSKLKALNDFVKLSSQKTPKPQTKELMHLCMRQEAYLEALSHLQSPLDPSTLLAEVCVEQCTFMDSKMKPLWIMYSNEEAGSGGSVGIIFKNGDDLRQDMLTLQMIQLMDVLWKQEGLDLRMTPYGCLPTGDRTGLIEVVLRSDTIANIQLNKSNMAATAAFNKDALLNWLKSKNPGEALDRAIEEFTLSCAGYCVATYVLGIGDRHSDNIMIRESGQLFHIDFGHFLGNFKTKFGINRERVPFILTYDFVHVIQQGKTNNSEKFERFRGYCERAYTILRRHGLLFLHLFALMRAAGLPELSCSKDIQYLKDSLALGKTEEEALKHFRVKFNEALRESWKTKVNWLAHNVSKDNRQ
Sequence of PI3Kδ (p110δ/p85α) Recombinant Human Protein (P27986 whole entry partner): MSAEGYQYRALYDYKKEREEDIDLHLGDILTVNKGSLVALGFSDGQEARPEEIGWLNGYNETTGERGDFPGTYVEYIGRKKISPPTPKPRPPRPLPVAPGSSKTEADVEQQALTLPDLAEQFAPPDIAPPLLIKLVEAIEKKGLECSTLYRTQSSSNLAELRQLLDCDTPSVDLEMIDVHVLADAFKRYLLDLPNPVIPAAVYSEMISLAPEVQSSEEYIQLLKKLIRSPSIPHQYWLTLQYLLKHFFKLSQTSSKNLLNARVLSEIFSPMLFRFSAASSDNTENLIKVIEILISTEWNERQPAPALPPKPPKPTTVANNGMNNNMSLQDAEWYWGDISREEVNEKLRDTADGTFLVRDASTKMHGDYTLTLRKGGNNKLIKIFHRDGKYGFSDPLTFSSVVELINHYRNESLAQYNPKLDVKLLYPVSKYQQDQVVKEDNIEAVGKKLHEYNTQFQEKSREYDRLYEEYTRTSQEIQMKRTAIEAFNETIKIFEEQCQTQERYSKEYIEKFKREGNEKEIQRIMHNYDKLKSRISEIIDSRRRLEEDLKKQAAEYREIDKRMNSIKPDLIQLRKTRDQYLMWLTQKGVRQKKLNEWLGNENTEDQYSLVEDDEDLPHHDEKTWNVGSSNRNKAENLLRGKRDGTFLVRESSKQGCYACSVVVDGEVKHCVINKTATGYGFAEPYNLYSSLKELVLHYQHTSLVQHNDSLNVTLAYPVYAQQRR

Row | Compound | IC50 [1] [µM] | IC50 ([2]; Homo sapiens) [µM] | IC50 [3] [µM] | IC50 [2] [µM]
1 | Cc1ccc(S(=O)(=O)N[C@H]2CC[C@H](O)CC2)cc1-c1cnc2c(N)nc(-c3cccc(F)c3)cn12 [Example 21, 3-[8-Amino-6-(3-fluorophenyl)imidazo[1,2-a]pyrazin-3-yl]-N-(trans-4-hydroxycyclohexyl)-4-methylbenzenesulfonamide] | < 0.1 | < 0.1 | < 0.1 | –
2 | Cc1ccc(S(=O)(=O)N[C@H]2CC[C@H](O)CC2)cc1-c1cn2cc(-c3ccccc3F)nc(N)c2n1 [Example 22, 3-[8-Amino-6-(2-fluorophenyl)imidazo[1,2-a]pyrazin-2-yl]-N-(trans-4-hydroxycyclohexyl)-4-methylbenzenesulfonamide] | < 0.1 | – | < 0.1 | < 0.1
3 | Cc1ccc(S(=O)(=O)N[C@H]2CC[C@H](O)CC2)cc1-c1cnc2c(N)nc(-c3ccccc3)cn12 [Example 23, 3-[8-Amino-6-phenylimidazo[1,2-a]pyrazin-3-yl]-N-(trans-4-hydroxycyclohexyl)-4-methylbenzenesulfonamide] | < 0.1 | < 0.1 | < 0.1 | –
4 | Cc1ccc(S(=O)(=O)N[C@H]2CC[C@H](O)CC2)cc1-c1cn2cc(-c3ccc(C#N)cc3)nc(N)c2n1 [Example 24, 3-[8-Amino-6-(4-cyanophenyl)imidazo[1,2-a]pyrazin-2-yl]-N-(trans-4-hydroxycyclohexyl)-4-methylbenzenesulfonamide] | < 0.1 | – | < 0.1 | 0.1 to 0.5
5 | Cc1ccc(S(=O)(=O)N[C@H]2CC[C@H](O)CC2)cc1-c1cnc2c(N)nc(-c3ccncc3)cn12 [Example 25, 3-(8-Amio-6-pyridin-4-ylimidazo[1,2-a]pyrazin-3-yl)-N-(trans-4-hydroxycyclohexyl)-4-methylbenzenesulfonamide] | 0.1 to 0.5 | 0.1 to 0.5 | < 0.1 | –
6 | Cc1ccc(S(=O)(=O)N[C@H]2CC[C@H](O)CC2)cc1-c1cnc2c(N)nc(-c3cccnc3)cn12 [Example 26, 3-(8-Amino-6-pyridin-3-ylimidazo[1,2-a]pyrazin-3-yl)-N-(trans-4-hydroxycyclohexyl)-4-methylbenzenesulfonamide] | < 0.1 | 0.1 to 0.5 | < 0.1 | –
7 | Cc1ccc(S(=O)(=O)N[C@H]2CC[C@H](O)CC2)cc1-c1cnc2c(N)nc(-c3cccs3)cn12 [Example 27, 3-[8-Amino-6-(2-thienyl)imidazo[1,2-a]pyrazin-3-yl]-N-(trans-4-hydroxycyclohexyl)-4-methylbenzenesulfonamide] | 0.1 to 0.5 | < 0.1 | < 0.1 | –
8 | Cc1ccc(S(=O)(=O)N[C@H]2CC[C@H](O)CC2)cc1-c1cnc2c(N)nc(-c3ccnn3C)cn12 [Example 28, 3-[8-Amino-6-(1-methyl-1H-pyrazol-5-yl)imidazo[1,2-a]pyrazin-3-yl]-N-(trans-4-hydroxycyclohexyl)-4-methylbenzenesulfonamide] | 0.1 to 0.5 | 0.1 to 0.5 | < 0.1 | –
9 | Cc1ccc(S(=O)(=O)N[C@H]2CC[C@H](O)CC2)cc1-c1cnc2c(N)nc(-c3cnn(C)c3)cn12 [Example 29, 3-[8-Amino-6-(1-methyl-1H-pyrazol-4-yl)imidazo[1,2-a]pyrazin-3-yl]-N-(trans-4-hydroxycyclohexyl)-4-methylbenzenesulfonamide] | 0.1 to 0.5 | > 1 | < 0.1 | –
10 | COc1cccc(-c2cn3c(-c4cc(S(=O)(=O)N[C@H]5CC[C@H](O)CC5)ccc4C)cnc3c(N)n2)c1F [Example 30, 3-[8-Amino-6-(2-fluoro-3-methoxyphenyl)imidazo[1,2-a]pyrazin-3-yl]-N-(trans-4-hydroxycyclohexyl)-4-methylbenzenesulfonamide] | < 0.1 | < 0.1 | < 0.1 | –
11 | CNC(=O)c1ccc(F)c(-c2cn3c(-c4cc(S(=O)(=O)N[C@H]5CC[C@H](O)CC5)ccc4C)cnc3c(N)n2)c1 [Example 31, 3-[8-Amino-3-(5-{[(trans-4-hydroxycyclohexyl)amino]sulfonyl}-2-methylphenyl)imidazo[1,2-a]pyrazin-6-yl]-4-fluoro-N-methylbenzamide] | < 0.1 | > 1 | < 0.1 | –
12 | Cc1ccc(S(=O)(=O)N[C@H]2CC[C@H](O)CC2)cc1-c1cnc2c(N)nc(-c3ccc(CO)cc3F)cn12 [Example 32, 3-{8-Amino-6-[2-fluoro-4-(hydroxymethyl)phenyl]imidazo[1,2-a]pyrazin-3-yl}-N-(trans-4-hydroxycyclohexyl)-4-methylbenzenesulfonamide] | < 0.1 | < 0.1 | < 0.1 | –
13 | Cc1ncc(-c2cn3c(-c4cc(S(=O)(=O)N[C@H]5CC[C@H](O)CC5)ccc4C)cnc3c(N)n2)s1 [Example 35, 3-[8-Amino-6-(2-methylthiazol-5-yl)imidazo[1,2-a]pyrazin-3-yl]-N-(trans-4-hydroxycyclohexyl)-4-methylbenzenesulfonamide] | 0.1 to 0.5 | < 0.1 | < 0.1 | –
14 | CNc1nc(-c2ccccc2F)cn2c(-c3cc(S(=O)(=O)N[C@H]4CC[C@H](O)CC4)ccc3C)cnc12 [Example 36, 3-[6-(2-Fluorophenyl)-8-(methylamino)imidazo[1,2-a]pyrazin-3-yl]-N-(trans-4-hydroxycyclohexyl)-4-methylbenzenesulfonamide trifluoroacetate] | < 0.1 | < 0.1 | < 0.1 | –
15 | Cc1cn2c(-c3cc(S(=O)(=O)N[C@H]4CC[C@H](O)CC4)ccc3C)cnc2c(N)n1 [Example 37, 3-(8-Amino-6-methylimidazo[1,2-a]pyrazin-3-yl)-N-(trans-4-hydroxycyclohexyl)-4-methylbenzenesulfonamide] | < 0.1 | 0.1 to 0.5 | < 0.1 | –
16 | CCc1cn2c(-c3cc(S(=O)(=O)N[C@H]4CC[C@H](O)CC4)ccc3C)cnc2c(N)n1 [Example 38, 3-(8-Amino-6-ethylimidazo[1,2-a]pyrazin-3-yl)-N-(trans-4-hydroxycyclohexyl)-4-methylbenzenesulfonamide] | < 0.1 | < 0.1 | < 0.1 | –
17 | Cc1ccc(S(=O)(=O)N[C@H]2CC[C@H](O)CC2)cc1-c1cnc2c(N)ncnn12 [Example 39, 3-(4-Aminoimidazo[2,1-f][1,2,4]triazin-7-yl)-N-(trans-4-hydroxycyclohexyl)-4-methylbenzenesulfonamide] | 0.1 to 0.5 | 0.1 to 0.5 | < 0.1 | –
18 | Cc1ccc(-c2cnc3c(N)nccn23)cc1S(=O)(=O)N[C@H]1CC[C@H](O)CC1 [Example 41, 5-(8-Aminoimidazo[1,2-a]pyrazin-3-yl)-N-(trans-4-hydroxycyclohexyl)-2-methylbenzenesulfonamide] | 0.1 to 0.5 | > 1 | < 0.1 | –
19 | Nc1nccn2c(-c3cc(S(=O)(=O)N[C@H]4CC[C@H](O)CC4)ccc3F)cnc12 [Example 42, 3-(8-Aminoimidazo[1,2-a]pyrazin-3-yl)-4-fluoro-N-(trans-4-hydroxycyclohexyl)benzenesulfonamide] | 0.5 to 2 | 0.5 to 1 | < 0.1 | –
20 | Cc1ccc(S(=O)(=O)NC2CC2)cc1-c1cnc2c(N)nccn12 [Example 47, 3-(8-Aminoimidazo[1,2-a]pyrazin-3-yl)-N-cyclopropyl-4-methylbenzenesulfoanmide] | 0.5 to 2 | – | < 0.1 | > 1
